Results on one compound are retold here after patent US20250281610A1, “P2RY2 ACTIVITY MODULATORS” (Deutsches Krebsforschungszentrum Stiftung des öffentlichen …, priority 2022, published 2025).

The structures appear in SMILES notation.

This assay has as its system CD33-specific CAR transduced T cells co-cultured with THP-1 cells. Nature of the assay: T cell cytokine production in co-culture of CD33-specific CAR-T cells with THP-1 cells. It counts as cell-based, human. Conditions: 5 μM AR-C. As to the method:
FIG. 8. Effects of P2RY2 antagonist on T cells and cancer cells in T cell-cancer cell co-cultures. T cells transduced with CD33-specific CAR (CAR-T) were co-cultured with genetically edited THP-1 cells in the absence or presence of 5 μM AR-C 118925XX (AR-C) for 6-24 hours. Control cells: THP-1 cells transduced with non-targeting sgRNA and Cas9 (gNT); P2RY2 deficient cells: THP-1 cells transduced with P2RY2-targeting sgRNA and Cas9 (gP2RY2-3, gP2RY2-4); B7-H3 (CD276) deficient cells: THP-1 cells transduced with B7-H3-targeting sgRNA and Cas9 (gCD276-1); P2RY2 and B7-H3 double deficient cells: THP-1 cells transduced with P2RY2-targeting sgRNA, B7-H3-targeting sgRNA, and Cas9 (gCD276-1 gP2RY2-3 DKO, gCD276-1 gP2RY2-4 DKO); P2RY2 overexpression cells: THP-1 cells transduced with the open reading frame of P2RY2 (P2RY2-OE); B7-H3 overexpression cells: THP-1 cells transduced with the open reading frame of CD276 (CD276-OE). Transduced cancer cells were selected by antibiotics according to antibiotic resistance genes carried by the lentiviral constructs. Flow cytometry analysis of expression of production of IFNγ and TNFα within the CD3+CD8+ cell population is shown (values indicate the percentages of positive cells). For the viability of THP-1 cells, normalized cell counts of viable cells after co-culture with CD33-specific CAR-T cells is shown. The end-point cell counts were normalized to the number of THP-1 cells in cultures without T cells.
MART-1 specific T cells were generated as described (Mezzadra et al., Nature 549, 106-110 (2017); Jorritsma et al., Blood 110 (10): 3564-3572. (2007)). […]
The open reading frames of transcripts of P2RY2(ENST00000393597.7) or CD276(ENST00000318443.10), were ordered as a codon optimized gBlock Gene Fragment (Integrated DNA Technologies or Twist Bioscience) and cloned into a lentiviral vector containing a blasticidin selection cassette. […]
MART1-specific CD8+ T cells and MART1 epitope-expressing cancer cells were mixed at a ratio of 1:16 to 1:4. […] T cell activation was assessed by surface staining with anti-CD137-BV421 (4-1BB, Biolegend), anti-CD69-APC/Fire™ 750 (FN50, Biolegend), anti-CD25-AF700 (BC96, Biolegend) antibodies and intracellular staining with anti-IL-2-PE/Cy7 (MQ1-17H12, Biolegend), anti-IFN-7-BV421 (4S.B3, Biolegend), anti-TNF-α-BV785 (MAb11, Biolegend) antibodies, followed by flow cytometry analysis. […] The viability of cancer cells that grow in suspension including THP-1 cells was assessed by flow cytometry-based absolute cell counting using AccuCount beads (Spherotech). For adherent cancer cells including BxPC3 and MCF7, the cell viability was quantified using CellTiter-Blue Cell Viability Assay (Promega).

Setting [1] is: 6-24 hours, P2RY2 proficient THP-1 cells, CD3+CD8+ population (FIG. 8).
Where [2] appears, read: P2RY2 deficient THP-1 cells (FIG. 8).

`Cc1ccc2c(c1)C=Cc1cc(C)ccc1C2c1cn(Cc2ccc(C(=O)Nc3nn[nH]n3)o2)c(=O)[nH]c1=S` [AR-C 118925XX]: under setting [1], the “production of IFNγ by T cells” value was “increased” and the “production of TNFα by T cells” value was “increased”. Moreover, under setting [2], the “production of IFNγ in T cell upon P2RY2 deletion” value is recorded as “does not influence” and the “production of TNFα in T cell upon P2RY2 deletion” value is listed as “does not influence”.
